Here are results for 17 compounds from patent US12421211B2, “Heterocyclic compounds” (Hoffmann-La Roche Inc., priority 2021, dated 2025).

Counter-ions that a name gives are not always drawn.

The subject of the first assay is Acinetobacter baumannii ATCC17961. Kind of assay: Antimicrobial susceptibility testing: 90% growth inhibitory concentration (IC90) determination. In kind it is cell-based. The note with it: 90% growth inhibitory concentration, Acinetobacter baumannii ATCC17961, Iso-Sensitest broth, OD 600 nm over 16 h; formic acid; formate; read-out: ATCC 17961 IC90. The method in brief:
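A. baumannii ATCC17961 at ~5×10^5 CFU/ml in Iso-Sensitest broth exposed to 10-point twofold dilutions (e.g. 50–0.097 μM final), 35±2° C. OD600 read every 20 minutes over 16h; IC50 and IC90 derived from inhibition during logarithmic growth.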
As a reminder, the IC90 is the concentration at which the effect reaches the 90% level. `COCCn1ncc(-c2ccc(-c3cnc(C(=O)Nc4ccc(C(=O)N5CCN(C(=O)C6CC[N+](CC(=O)O)(CC7CNC7)CC6)CC5)c(Cl)c4)n3C)c(F)c2F)c1C` (centres unmarked) [Example B30, 2-[1-(azetidin-3-ylmethyl)-4-[4-[2-chloro-4-[[5-[2,3-difluoro-4-[1-(2-methoxyethyl)-5-methyl-pyrazol-4-yl]phenyl]-1-methyl-imidazole-2-carbonyl]amino]benzoyl]piperazine-1-carbonyl]piperidin-1-ium-1-yl]acetic acid; formic acid; formate]: the IC90 amounted to 190 nM.

Still in this assay, the particulars now being: Acinetobacter baumannii, ATCC17961, 16 h, 90% growth inhibitory concentration, Acinetobacter baumannii ATCC17961, Iso-Sensitest broth, OD 600 nm over 16 h; read-out: ATCC 17961 IC90.
Regarding `Cn1c(-c2ccc(-c3cn[nH]c3C3CCOCC3)c(F)c2F)cnc1C(=O)Nc1ccc(C(=O)N2CCN(C(=O)C3CC[N+](C)(C)CC3)CC2)c(Cl)c1` [Example I6, N-[3-chloro-4-[4-(1,1-dimethylpiperidin-1-ium-4-carbonyl)piperazine-1-carbonyl]phenyl]-5-[2,3-difluoro-4-(5-tetrahydropyran-4-yl-1H-pyrazol-4-yl)phenyl]-1-methyl-imidazole-2-carboxamide; formate], the IC90 was found to be 820 nM. In the case of `Cc1n[nH]cc1-c1ccc(-c2cnc(C(=O)Nc3ccc(C(=O)N4CCC(CN5CC[N+](C)(C)CC5=O)CC4)c(Cl)c3)n2C)c(F)c1F` [Example D21, N-[3-chloro-4-[4-[(4,4-dimethyl-2-oxo-piperazin-4-ium-1-yl)methyl]piperidine-1-carbonyl]phenyl]-5-[2,3-difluoro-4-(3-methyl-1H-pyrazol-4-yl)phenyl]-1-methyl-imidazole-2-carboxamide; formate], the IC90 is 200 nM. Still for that read-out and setting: for `COCCn1ncc(-c2ccc(-c3cnc(C(=O)Nc4ccc(C(=O)N5CCN(C(=O)C6CC[N+](C)(C)CC6)CC5)c(Cl)c4)n3C)c(F)c2F)c1Cl` [Example F31, N-[3-chloro-4-[4-(1,1-dimethylpiperidin-1-ium-4-carbonyl)piperazine-1-carbonyl]phenyl]-5-[4-[5-chloro-1-(2-methoxyethyl)pyrazol-4-yl]-2,3-difluoro-phenyl]-1-methyl-imidazole-2-carboxamide; formate] the value was 67 nM; for `Cc1nn(CC(=O)Nc2ccc(C(=O)N3CC[N+](C)(C)CC3)cc2)cc1-c1ccc(-c2cnc(C(=O)Nc3ccc(C(=O)N4CCN(C(=O)C5CC[N+](C)(C)CC5)CC4)c(Cl)c3)n2C)c(F)c1F` [Example G30, N-[3-chloro-4-[4-(1,1-dimethylpiperidin-1-ium-4-carbonyl)piperazine-1-carbonyl]phenyl]-5-[4-[1-[2-[4-(4,4-dimethylpiperazin-4-ium-1-carbonyl)anilino]-2-oxo-ethyl]-3-methyl-pyrazol-4-yl]-2,3-difluoro-phenyl]-1-methyl-imidazole-2-carboxamide; diformate], 1000 nM. The same measure, in the same setting: to `COCCn1ncc(-c2ccc(-c3cnc(C(=O)Nc4ccc(C(=O)N5CCN(C(=O)C6CC[N+](C)(C)CC6)CC5)c(Cl)c4)n3C)c(F)c2F)c1C` [Example A4, N-[3-chloro-4-[4-(1,1-dimethylpiperidin-1-ium-4-carbonyl)piperazine-1-carbonyl]phenyl]-5-[2,3-difluoro-4-[1-(2-methoxyethyl)-5-methyl-pyrazol-4-yl]phenyl]-1-methyl-imidazole-2-carboxamide; formate] belongs 110 nM. Consider `Cc1nn(CC(=O)Nc2cccnn2)cc1-c1ccc(-c2cnc(C(=O)Nc3ccc(C(=O)N4CCN(C(=O)C5CC[N+](C)(C)CC5)CC4)c(Cl)c3)n2C)c(F)c1F` [Example G23, N-[3-chloro-4-[4-(1,1-dimethylpiperidin-1-ium-4-carbonyl)piperazine-1-carbonyl]phenyl]-5-[2,3-difluoro-4-[3-methyl-1-[2-oxo-2-(pyridazin-3-ylamino)ethyl]pyrazol-4-yl]phenyl]-1-methyl-imidazole-2-carboxamide; formate], for which the IC90 is 270 nM. On to `COCCn1cc(-c2ccc(-c3cnc(C(=O)Nc4ccc(C(=O)N5CCN(C(=O)[C@@H]6CC(CO)C[N+]6(C)C)CC5)c(Cl)c4)n3C)c(F)c2F)c(C)n1` (stereo partly drawn) [Example A12, N-[3-chloro-4-[4-[(2S)-4-(hydroxymethyl)-1,1-dimethyl-pyrrolidin-1-ium-2-carbonyl]piperazine-1-carbonyl]phenyl]-5-[2,3-difluoro-4-[1-(2-methoxyethyl)-3-methyl-pyrazol-4-yl]phenyl]-1-methyl-imidazole-2-carboxamide; formate], for which the IC90 worked out at 210 nM. Turning to `Cc1n[nH]cc1-c1ccc(-c2cnc(C(=O)Nc3ccc(C(=O)N4CCN(C(=O)CCC[N+](CCCN)(CCCN)CC(=O)O)CC4)c(Cl)c3)n2C)c(F)c1F` [Example D41, bis(3-aminopropyl)-(carboxymethyl)-[4-[4-[2-chloro-4-[[5-[2,3-difluoro-4-(3-methyl-1H-pyrazol-4-yl)phenyl]-1-methyl-imidazole-2-carbonyl]amino]benzoyl]piperazin-1-yl]-4-oxo-butyl]ammonium; formic acid; formate], the IC90 amounted to 61 nM. On the same count and under the same terms, for `COc1ccccc1-c1[nH]ncc1-c1ccc(-c2cnc(C(=O)Nc3ccc(C(=O)N4CCN(C(=O)C5CC[N+](C)(C)CC5)CC4)c(Cl)c3)n2C)c(F)c1F` [Example I4, N-[3-chloro-4-[4-(1,1-dimethylpiperidin-1-ium-4-carbonyl)piperazine-1-carbonyl]phenyl]-5-[2,3-difluoro-4-[5-(2-methoxyphenyl)-1H-pyrazol-4-yl]phenyl]-1-methyl-imidazole-2-carboxamide; formate] the value was 1500 nM; for `Cc1n[nH]cc1-c1ccc(-c2cnc(C(=O)Nc3ccc(C(=O)N4CCN(C(=O)C5CC[N+](C)(CC6CNC6)CC5)CC4)c(Cl)c3)n2C)c(F)c1F` (centres unmarked) [Example J1, N-[4-[4-[1-(azetidin-3-ylmethyl)-1-methyl-piperidin-1-ium-4-carbonyl]piperazine-1-carbonyl]-3-chloro-phenyl]-5-[2,3-difluoro-4-(3-methyl-1H-pyrazol-4-yl)phenyl]-1-methyl-imidazole-2-carboxamide; formate], 22 nM; for `Cc1nn(CC(=O)Nc2ccc[n+](C)c2)cc1-c1ccc(-c2cnc(C(=O)Nc3ccc(C(=O)N4CCN(C(=O)C5CC[N+](C)(C)CC5)CC4)c(Cl)c3)n2C)c(F)c1F` [Example G15, N-[3-chloro-4-[4-(1,1-dimethylpiperidin-1-ium-4-carbonyl)piperazine-1-carbonyl]phenyl]-5-[2,3-difluoro-4-[3-methyl-1-[2-[(1-methylpyridin-1-ium-3-yl)amino]-2-oxo-ethyl]pyrazol-4-yl]phenyl]-1-methyl-imidazole-2-carboxamide; diformate], 300 nM. As to `Cc1c(-c2cnc(C(=O)Nc3ccc(C(=O)N4CCN(C(=O)CCC[N+](C)(CC(=O)O)CC5CNC5)CC4)c(Cl)c3)n2C)ccc(-c2cnn(CCOC(F)F)c2C)c1F` (centres unmarked) [Example N1, azetidin-3-ylmethyl-(carboxymethyl)-[4-[4-[2-chloro-4-[[5-[4-[1-[2-(difluoromethoxy)ethyl]-5-methyl-pyrazol-4-yl]-3-fluoro-2-methyl-phenyl]-1-methyl-imidazole-2-carbonyl]amino]benzoyl]piperazin-1-yl]-4-oxo-butyl]-methyl-ammonium; formic acid; formate], the IC90 turned out to be 189 nM.

Still in this assay, the particulars now being: Acinetobacter baumannii, ATCC17961, 16 h, read-out: ATCC 17961 IC90.
In the case of `COCCn1ncc(-c2ccc(-c3cnc(C(=O)Nc4ccc(C(=O)N5CCN(C(=O)C[N+](C)(C)C)CC5)c(Cl)c4)n3C)c(F)c2F)c1C` [Example A8, [2-[4-[2-chloro-4-[[5-[2,3-difluoro-4-[1-(2-methoxyethyl)-5-methyl-pyrazol-4-yl]phenyl]-1-methyl-imidazole-2-carbonyl]amino]benzoyl]piperazin-1-yl]-2-oxo-ethyl]-trimethyl-ammonium; 2,2,2-trifluoroacetate], the IC90 came out at 53 nM. Same read-out and setting: for `Cc1nn(CC(=O)Nc2ccc(N3CCOCC3)nn2)cc1-c1ccc(-c2cnc(C(=O)Nc3ccc(C(=O)N4CCN(C(=O)C5CC[N+](C)(C)CC5)CC4)c(Cl)c3)n2C)c(F)c1F` [Example L5, N-[3-chloro-4-[4-(1,1-dimethylpiperidin-1-ium-4-carbonyl)piperazine-1-carbonyl]phenyl]-5-[2,3-difluoro-4-[3-methyl-1-[2-[(6-morpholinopyridazin-3-yl)amino]-2-oxo-ethyl]pyrazol-4-yl]phenyl]-1-methyl-imidazole-2-carboxamide; formate] the value was 374 nM; for `COCCn1cc(-c2ccc(-c3cnc(C(=O)Nc4ccc(C(=O)N5CCN(C(=O)C6CC[N+](CC(=O)O)(CC7CNC7)CC6)CC5)c(Cl)c4)n3C)c(F)c2F)c(C)n1` (centres unmarked) [Example B18, 2-[1-(azetidin-3-ylmethyl)-4-[4-[2-chloro-4-[[5-[2,3-difluoro-4-[1-(2-methoxyethyl)-3-methyl-pyrazol-4-yl]phenyl]-1-methyl-imidazole-2-carbonyl]amino]benzoyl]piperazine-1-carbonyl]piperidin-1-ium-1-yl]acetic acid; formic acid; formate], 430 nM. As for `Cc1nn(CC(=O)Nc2ccc(F)nn2)cc1-c1ccc(-c2cnc(C(=O)Nc3ccc(C(=O)N4CCN(C(=O)C5CC[N+](C)(C)CC5)CC4)c(Cl)c3)n2C)cc1F` [Example L2, N-[3-chloro-4-[4-(1,1-dimethylpiperidin-1-ium-4-carbonyl)piperazine-1-carbonyl]phenyl]-5-[3-fluoro-4-[1-[2-[(6-fluoropyridazin-3-yl)amino]-2-oxo-ethyl]-3-methyl-pyrazol-4-yl]phenyl]-1-methyl-imidazole-2-carboxamide; formate], the IC90 amounted to 168 nM.
